Test results published in ChEMBL document CHEMBL1129024, “Design, synthesis, and antitumor activity of bicyclic and isomeric analogues of illudin M” (Bioorg Med Chem Lett, 1996).

Columns and labels:
Format in all cases: functional, cell-based
[1] = system: A-375; test: In vitro antitumor activity against A375 (melanoma) human tumor cell lines.
[2] = system: A549; test: In vitro antitumor activity against A549 (lung) human tumor cell lines.
[3] = system: MDA-MB-231; test: In vitro antitumor activity against MB231 (breast) human tumor cell lines.
[4] = system: SW480; test: In vitro antitumor activity against SW480 (colon) human tumor cell lines.

Compound | IC50 [1] [nM] | IC50 [2] [nM] | IC50 [3] [nM] | IC50 [4] [nM]
CC1=C/C(=C\c2ccccc2)C(=O)C(C)(O)C12CC2 (stereo not given) | > 10000 | 1500 | 4000 | 2500
CC1=C/C(=C\C#CCCO)C(=O)C(C)(O)C12CC2 (stereo not given) | 2000 | 3000 | 2000 | 4000
CC1=C2C(=O)C(C)(C)C=C2C(=O)[C@](C)(O)C12CC2 [DEHYDROILLUDIN M] | 550 | 200 | 450 | 300
C/C=C1\C=C(C)C2(CC2)C(C)(O)C1=O (stereo not given) | 4 | 150 | 110 | 120
COc1cccc2c1C(=O)c1c(O)c3c(c(O)c1C2=O)C[C@@](O)(C(=O)CO)C[C@@H]3O[C@H]1C[C@H](N)[C@H](O)[C@H](C)O1 [DOXORUBICIN] | 70 | 120 | 150 | 60
C=C1C2=C(CC(C)(C)C2=O)C(=O)C(C)(O)C12CC2 (stereo not given) | 32 | 250 | 2000 | 60
CC1=C/C(=C\c2cccs2)C(=O)C(C)(O)C12CC2 (stereo not given) | > 10000 | > 10000 | > 10000 | > 10000
CC1=C/C(=C\Cl)C(=O)C(C)(O)C12CC2 (stereo not given) | 1000 | 200 | 300 | 30
CC1=C/C(=C\C(C)C)C(=O)C(C)(O)C12CC2 (stereo not given) | 130 | 110 | 300 | 30
C=C/C=C1\C=C(C)C2(CC2)C(C)(O)C1=O (stereo not given) | 18 | 2 | 28 | 180
